The target in one series is T1, human LPA receptor EDG-2 (Homo sapiens, UniProt Q92633).
T1 construct: The EDG-2 coding region was amplified by RT-PCR using Pfu DNA polymerase; expressed in transfected cells; host or cells: Saccharomyces cerevisiae JEY5 (sst2-, far1, FUS1::lacZ), plasmid pYEUra3-Edg2 (pJE15), galactose-inducible
Briefly: FUS1::lacZ (β-galactosidase) reporter assay in yeast expressing EDG-2. It is filed as cell-based. Conditions: for activation of EDG-2 (FUS1::lacZ activity): concentrations up to 200 μM, S.C.+2% galactose; for activity towards EDG-2 of liposome preparations on their own: liposomes without LPA. Here is the method: SY2069 (Mata, far1-bad3, HIS3::pFUS1::HIS3, mfa2-Δ1::pFUS1::lacZ, ura3, leu2, ade1, arg4, trp1) was used to derive an sst2^− strain for subsequent studies. SST2 was disrupted using pBC14 (Dohlman, H. G., et al. (1996) Mol. Cell. Biol. 16(9), 5194-5209). pBC14 was digested with NcoI and transformed into SY2069 by lithium acetate using the URA3 gene for selection. Ura^+ colonies were grown in non-selective media (YEPD) and plated onto media containing 5-Flouro-orotic Acid (5-FOA, Sigma). The resultant 5-FOA resistant isolates were tested for the supersensitive phenotype by assaying lacZ activity in response to α-factor (data not shown). One sst2^− strain was named JEY5 and used in all subsequent studies. Yeast were grown in SC+2% Galactose or 2% Glucose media lacking Uracil.
Construction of EDG-2 Expression Plasmid and Expression in Yeast: The EDG-2 coding region was amplified by RT-PCR using Pfu DNA polymerase under conditions described by the supplier (Stratagene). The template for RT-PCR was cDNA (5 ng) that was reverse transcribed from human fetal brain total RNA (Clontech) using SuperScript II Reverse Transcriptase as described by the supplier (Gibco BRL). 1 μM each of the following primers, FP; 5′-[…]-3′ (SEQ ID NO. 2) and RP; 5′-[…]-3′ (SEQ ID NO. 3), were used for RT-PCR. Oligonucleotide Synthesis and DNA Sequencing: PCR primers and DNA sequencing primers were synthesized by the phosphoramidite method with an Applied Biosystems model 394 synthesizer, purified by polyacrylamide gel electrophoresis and desalted on Sep-Pak C18 cartridges (Waters Associates, Milford, Mass.). The edg-2 cDNA was sequenced in pYEUra3 by the dideoxy chain termination method using the T7 Sequenase7-deaza-dGTP sequencing kit as described by the supplier (Amersham Life Science). The primers were designed based on the human edg-2 cDNA sequence submitted to Genbank by Zondag and Moolenaar (accession no. Y09479) and included restriction site extensions for subcloning into the pYEUra3 vector (Stratagene). This placed the cDNA under the control of a galactose-inducible promoter (UASgal). The resulting plasmid was used to transform JEY5 by the lithium acetate method.
(§1) Expression of the EDG-2: To test the effects of the SST2 gene product on the edg-2 response to LPA, JEY5 (sst2Δ) expressing the EDG-2 receptor was compared to the parental SY2069 strain (SST2^+). […] As a control, JEY5+EDG-2 was assayed in 2% glucose such that the GAL1 promoter would be repressed and thus not expressing the edg-2 gene (glucose repression is described in detail by Johnston, M., and Carlson, M. (1992) in The molecular and cellular biology of the yeast Saccharomyces: gene expression (Broach, J. R., Pringle, J. R., and Jones, E. W., eds), pp. 193-281, Cold Spring Harbor Laborartory Press, Plainview, N.Y.). lacZ assays in response to phospholipids: JEY5+pJE15 was grown on SC media containing either 2% galactose or 2% glucose lacking uracil to an approximate optical density of 0.1-0.5 prior to the addition of lipid or α-factor. LPA and other glycerophospholipids (Avanti Polar Lipids) were dissolved in chloroform and dried down under vacuum immediately prior to experiments and resuspended in BBS/EDTA (50 mM NH4HCO3, 104 mM NaCl, 250 mM EDTA2Na) at 1 mg/ml with sonication until the solution was clear. Sphingosine-1-phosphate (Matreya) was resuspended in ethanol/water (9:1) pH 3.0 immediately prior to use. Fatty Acid Free Bovine Serum Albumin was obtained from Sigma (St. Louis, Mo.) and used at 0.1 mg/ml in BBS/EDTA. Cells were allowed to grow for the indicated time (7 hours for dose response experiments) prior to assaying. 100 μl of yeast culture were then added to 900 μl assay buffer (per liter: 60 mM Na2HPO4, 40 mM NaH2PO4, 10 mM KCl, 0.1 mM MgSO4, pH 7.0 plus 2.7 ml β-mercaptoethanol per liter) plus 50 μl 0.1%SDS+three drops Chloroform. Cells were vortexed for 10 seconds and incubated for 5 minutes at 28° C.
In general terms: Reporter assays use an easily measured gene product as a stand-in for the process of interest.

A further series concerns yeast cells. Nature of the series: Toxicity of lipids to the yeast cells in the lacZ assay. It is filed as cell-based, Saccharomyces cerevisiae. Particulars: yeast culture. Here is the method: as §1, with “[…] Color development” for “Fatty Acid Free Bovine Serum Albumin”, “measured at A420” for “obtained from Sigma (St. Louis, Mo.)”, “normalized to A600. Units” for “used at 0.1 mg/ml in BBS/EDTA. Cells”, “expressed as Miller Units. […]” for “allowed to grow for the indicated time (7 hours for dose response experiments) prior to assaying. 100 μl of yeast culture were then added to 900 μl assay buffer (per liter: 60 mM Na2HPO4, 40 mM NaH2PO4, 10 mM KCl, 0.1 mM MgSO4, pH 7.0 plus 2.7 ml β-mercaptoethanol per liter) plus 50 μl 0.1%SDS+three drops Chloroform. Cells were vortexed for 10 seconds and incubated for 5 minutes at 28° C.”

T1 sequence (Q92633 whole entry): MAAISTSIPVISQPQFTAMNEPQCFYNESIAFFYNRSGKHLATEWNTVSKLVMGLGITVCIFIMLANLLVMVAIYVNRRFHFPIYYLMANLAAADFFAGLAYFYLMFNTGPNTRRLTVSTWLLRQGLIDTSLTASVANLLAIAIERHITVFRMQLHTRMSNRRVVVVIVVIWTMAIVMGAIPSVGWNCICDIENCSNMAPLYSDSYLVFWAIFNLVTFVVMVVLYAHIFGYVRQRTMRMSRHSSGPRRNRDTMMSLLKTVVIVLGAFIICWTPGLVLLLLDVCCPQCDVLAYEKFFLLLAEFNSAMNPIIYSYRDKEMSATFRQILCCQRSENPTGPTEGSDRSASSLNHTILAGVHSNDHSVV

For the compound “1-acyl-2-hydroxy-sn-glycero-3-phosphate [LPA]”, on human LPA receptor EDG-2 (JEY5 (sst2Δ) expressing EDG-2, 200 μM LPA, galactose, seven hours), the “response of FUS1::lacZ to LPA, sst2- derivative” value is recorded as “activated”. In addition, the “activation of EDG-2 (FUS1::lacZ activity)” value on human LPA receptor EDG-2 (seven hours) was “specifically responds”. Also, the “response of FUS1::lacZ to LPA, SST2+ strain” value on human LPA receptor EDG-2 (parental SY2069 strain (SST2+) expressing EDG-2) was “unresponsive”. In addition, the “maximal stimulation of lacZ activity as compared to vector control” value on human LPA receptor EDG-2 (time course, at 7 hours) is listed as “four-fold”. Moreover, the “concentration at which toxicity was seen / above which testing was not possible due to toxicity” value in the series with yeast cells is recorded as “above 600 μM”.
As to “1-palmitoyl-2-oleoyl-phosphatidylglycerol”, the “activity towards EDG-2 of liposome preparations on their own” value on human LPA receptor EDG-2 is on record as “no activity”.
Consider `CCCCCCCCCCCCC/C=C/[C@@H](O)[C@@H](N)COP(=O)(O)O` [Sphingosine-1-phosphate], for which the “activation of EDG-2 (FUS1::lacZ activity)” value on human LPA receptor EDG-2 (seven hours) is listed as “no other lyso-glycerolphospholipid or Sphingosine-1-phosphate activated EDG-2 as well as did LPA”; on human LPA receptor EDG-2 (seven hours, listed as sphingosine-1-phosphate), “does not respond”.
dioleoyl-phosphatidylcholine: the “activity towards EDG-2 of liposome preparations on their own” value at human LPA receptor EDG-2 is “no activity”.
